The text below walks through data of ChEMBL document CHEMBL1146411, “1-Hydroxyditerpenes from Two New Zealand Liverworts, Paraschistochila pinnatifolia and Trichocolea mollissima” (J Nat Prod, 1997).

The test system of data set [1] is P388. Description: Cytotoxicity against mouse P388 cells. The class given is functional, cell-based.
Data set [2] can be described thus: Cytotoxicity against […] BSC cells at 60 ug/disk. The class given is cell-based.
Data set [3] has as its system Candida albicans. As to the kind of experiment: Antimicrobial activity against Candida albicans at 60 ug/disk. In kind it is functional, organism-based.

Each structure is given as a SMILES string. Values after ≈ are worked out from the molar mass of the structure shown. Active and inactive are the calls of the source. The rule behind the calls is not given here.

By IC50 is commonly meant the concentration needed to halve the response being measured. A lower IC50 goes with higher potency. In turn, `C[C@@H]1C[C@@]23CC[C@@H]4C(C)(C)CC[C@H](O)[C@@]4(C)[C@@H]2CC(=O)[C@@H]1C3` returned an IC50 in data set [1] of 15 µg/mL (≈ 49.3 µM).
`C=C[C@@]1(C)C=C2CC[C@@H]3C(C)(C)CC[C@H](O)[C@@]3(C)[C@@H]2CC1` returned an IC50 in data set [1] above 25 µg/mL. Besides, in data set [2], the Activity result is listed as “Not Active”. The outcome in data set [3] was inactive.
